The text below walks through data of US20230167437A1, “COMPOSITIONS FOR TREATING CANCER WITH KRAS MUTATIONS AND USES THEREOF” (Aadigen, LLC, priority 2020, published 2023).

Holding throughout (format): cell-based, human
Series [1] has as its system phospho-Akt (Ser 473). Description: Western blot of KRAS downstream signaling 48 h post transfection. To be noted: PANC-1 cells. As to the method:
(§1) In order to verify the specific effect of your lead sgRNA targeting G12V and G12D KRAS mutation, gRNA35A5 G12D and gRNA35T3 G12V on KRAS signal transduction pathway in PANC-1 and SW403 cells, we measured the levels of downstream signaling proteins that are activated by KRAS. We specifically looked for changes in key signaling pathways, such as mitogen-activated protein kinase (MAPK) or PI3K/Akt, which are known to be the major effector pathways of KRAS activation. Cas9 mRNA (0.2 μg) and gRNA (0.2 μg or 0.5 μg) were associated with ADGN peptide at molar ratio 20/1 (peptide/nucleic acid). PANC1 and SW403 cells were cultured in 48 well plate format and treated with free mRNACas9-gRNA, or ADGN/mRNACas9:gRNA complex. Levels of Erk and Akt phosphorylation were measured 48 h post transfection by western blot using phospho-Akt (Ser 473) (CST, #9271, RRID:AB_329825) and phospho-p44/42 MAPK (Erk1/2) (Thr202/Tyr204) (CST, #4370, RRID:AB_2315112).
A general note: In western blotting, separated proteins are transferred to a membrane and probed.

The subject of series [2] is phospho-p44/42 MAPK (Erk1/2) (Thr202/Tyr204). The series is described as above. To be noted: PANC-1 cells. As for the experimental part:
as §1

Series [3] has as its system wild type KRAS. Put plainly: Indel frequencies at the endogenous target sequences (T7E1 / deep sequencing) after ADGN/Cas9 mRNA/gRNA transfection. To be noted: deep sequencing, 72 hours after transfection, Cas9 mRNA 0.1 μg, gRNA 0.2 μg. The essentials:
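Cas9 mRNA and gRNA complexed with ADGN peptide (20:1 molar ratio) and transfected into KRAS-mutant (G12V or G12D) and other cancer cell lines in 48-well format, 2 h exposure in serum-free DMEM. Indels at endogenous target sites measured 72 h post-transfection by T7E1 or deep sequencing.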

In the case of “AGT TGG AGC TGA TGG CGT (guide AGTTGGAGCTGATGGCGT; chemistry not given here) [gRNA35A5, sgRNA target KRAS G12D mutation (35G>A); PAM AGG]”, in series [1], the “level of p-AKT” value is “significantly reduced”. In series [2], the “level of P-Erk reduced by” value is on record as 15%. In addition, the indel frequencies in series [3] (HS68 cells (WT KRAS)) and in series [3] (HT-29 cells (WT KRAS)) was 2 ± 1% in each case.
